Results on 7 compounds are retold here after PubChem BioAssay (NCI).

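Method: 48-hour compound exposure of cells in 96-well plates, five concentrations, linear interpolation of endpoints. GI50: concentration for 50% inhibition of growth. Definition used: TGI = concentration required for complete inhibition of growth.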 Some results are limits rather than exact numbers.

Some test systems named below: TK-10 renal; CCRF-CEM leukemia; COLO 205 colon; HT29 colon; SR leukemia; SNB-19 CNS; NCI-H460 lung; HOP-92 NSCLC; A498 renal; SK-OV-3 ovarian.
Holding throughout (assay): NCI tumour cell line growth inhibition, 48 h

On to `C[C@@H]1CN2[C@H]3[C@@H]1CC[C@]31CCC(=O)O[C@]1(C)[C@H]1CC[C@H]3CCC=C3[C@@H]12`, for which the GI50 in the assay on TK-10 renal, with CCRF-CEM leukemia, in the assay with COLO 205 colon, in the assay with HT29 colon, in the assay on SR leukemia and in the assay with SNB-19 CNS was greater than 30 µM each time. Also, the GI50 in the assay with NCI-H460 lung, in the assay with HOP-92 NSCLC, in the assay on A498 renal and with SK-OV-3 ovarian was greater than 30 µM in each case. Moreover, the TGI in the assay with TK-10 renal, with CCRF-CEM leukemia, in the assay on COLO 205 colon, in the assay on HT29 colon, in the assay on SR leukemia and with SNB-19 CNS was greater than 30 µM in each case. Also, the TGI in the assay on NCI-H460 lung, in the assay on HOP-92 NSCLC, in the assay with A498 renal and in the assay on SK-OV-3 ovarian was greater than 30 µM throughout.
For `CNC(=O)Oc1cc(C(C)C)ccc1Sc1ccc(C(C)C)cc1OC(=O)NC`, the GI50 with TK-10 renal is 14 µM; with CCRF-CEM leukemia, 3.41 µM; with COLO 205 colon, 14.4 µM; with HT29 colon, 12.6 µM; in the assay with SR leukemia it was 2.2 µM; with SNB-19 CNS, 9.57 µM. Further, the GI50 in the assay on NCI-H460 lung is 2.44 µM; in the assay with HOP-92 NSCLC, 2.63 µM; in the assay on A498 renal it was 12 µM; with SK-OV-3 ovarian it was 10.5 µM. The TGI was 30.3 µM with TK-10 renal; 46.3 µM in the assay on CCRF-CEM leukemia; 28.8 µM with COLO 205 colon; 27.4 µM in the assay with HT29 colon; 10 µM in the assay on SR leukemia; 24.4 µM with SNB-19 CNS. The TGI with NCI-H460 lung was 11 µM; in the assay with HOP-92 NSCLC, 9.85 µM; in the assay on A498 renal, 25 µM; with SK-OV-3 ovarian, 23.7 µM.
In the case of `O=C(N/N=C/c1ccc(Cl)cc1)c1ccc(NC(=O)c2ccccn2)cc1`, the GI50 in the assay on TK-10 renal is 16.6 µM; with CCRF-CEM leukemia it was greater than 100 µM; with COLO 205 colon it was greater than 100 µM; in the assay with HT29 colon, greater than 100 µM; in the assay with SR leukemia, 70.8 µM; in the assay with SNB-19 CNS, 30 µM. The GI50 is 8.2 µM with NCI-H460 lung, 5.23 µM with HOP-92 NSCLC, 44.9 µM with A498 renal and 31 µM in the assay on SK-OV-3 ovarian. In addition, the TGI in the assay on TK-10 renal was 46.8 µM; in the assay on CCRF-CEM leukemia it was greater than 100 µM; in the assay on COLO 205 colon, greater than 100 µM; in the assay with HT29 colon it was greater than 100 µM; in the assay on SR leukemia it was greater than 100 µM; in the assay on SNB-19 CNS, greater than 100 µM. In addition, the TGI is 24.6 µM with NCI-H460 lung, 53.2 µM with HOP-92 NSCLC, greater than 100 µM with A498 renal and greater than 100 µM in the assay on SK-OV-3 ovarian.
`COc1cc2cc(NCc3cccc(Cl)c3)nc(C)c2cc1OC`: the GI50 with TK-10 renal is 4.15 µM; in the assay with CCRF-CEM leukemia, 2.54 µM; in the assay on COLO 205 colon, 1.62 µM; in the assay on HT29 colon, 0.462 µM; in the assay on SR leukemia, 1.66 µM; in the assay on SNB-19 CNS, 2.12 µM. The GI50 was 1.27 µM in the assay on NCI-H460 lung, 0.597 µM with HOP-92 NSCLC, 1.17 µM with A498 renal and 4.94 µM in the assay on SK-OV-3 ovarian. The TGI in the assay with TK-10 renal was 36.6 µM; with CCRF-CEM leukemia, greater than 100 µM; in the assay with COLO 205 colon, 9.3 µM; in the assay on HT29 colon, 11.4 µM; in the assay on SR leukemia, 44.9 µM; with SNB-19 CNS it was 31.8 µM. Also, the TGI worked out at 14.6 µM in the assay on NCI-H460 lung, 14.3 µM in the assay with HOP-92 NSCLC, 11.6 µM in the assay with A498 renal and 33.5 µM with SK-OV-3 ovarian.
Take `O=C(/C=C\c1ccc(O)c(O)c1)c1ccccc1O`: the GI50 in the assay with TK-10 renal was 18.2 µM; with CCRF-CEM leukemia, 0.645 µM; with COLO 205 colon, 8.99 µM; in the assay on HT29 colon, 18.4 µM; with SR leukemia it was 3.17 µM; in the assay on SNB-19 CNS, 17.4 µM. Further, the GI50 is 15.1 µM in the assay with NCI-H460 lung, 3.77 µM with HOP-92 NSCLC, 16 µM with A498 renal and 17.7 µM in the assay on SK-OV-3 ovarian. For the same compound, the TGI was greater than 100 µM in the assay with TK-10 renal; greater than 100 µM in the assay with CCRF-CEM leukemia; 21.6 µM with COLO 205 colon; 47.1 µM in the assay with HT29 colon; 69.8 µM in the assay with SR leukemia; 91.8 µM with SNB-19 CNS. Moreover, the TGI amounted to 49.8 µM in the assay with NCI-H460 lung, 27.7 µM with HOP-92 NSCLC, 32.8 µM in the assay on A498 renal and 71.6 µM in the assay on SK-OV-3 ovarian.
As to `COc1ccc(-c2nc3sc(-c4cc(OC)c(OC)c(OC)c4)nn3c2/C=C2/C(=O)Nc3ccc(F)cc32)cc1`, the GI50 in the assay with TK-10 renal is 2.26 µM; in the assay with CCRF-CEM leukemia, 5.49 µM; with COLO 205 colon, 1.61 µM; with HT29 colon, 2.18 µM; in the assay on SR leukemia, 23.5 µM; with SNB-19 CNS, 15.1 µM. Moreover, the GI50 was 3.42 µM with NCI-H460 lung, 2.02 µM in the assay on HOP-92 NSCLC, 12.2 µM in the assay with A498 renal and 2.84 µM in the assay with SK-OV-3 ovarian. Moreover, the TGI is 4.23 µM in the assay on TK-10 renal; greater than 100 µM in the assay with CCRF-CEM leukemia; 4.13 µM in the assay with COLO 205 colon; 4.68 µM in the assay with HT29 colon; greater than 100 µM with SR leukemia; 44 µM in the assay with SNB-19 CNS. Moreover, the TGI in the assay with NCI-H460 lung was determined as 15.3 µM; in the assay on HOP-92 NSCLC, 9.48 µM; with A498 renal, 30.6 µM; in the assay on SK-OV-3 ovarian it was 7.34 µM.
On to `Cc1cc(I)cc(CNCCN(C)C)c1O`, for which the GI50 is greater than 91.6 µM in the assay with TK-10 renal; greater than 100 µM in the assay with CCRF-CEM leukemia; greater than 100 µM in the assay on COLO 205 colon; 35.2 µM with HT29 colon; greater than 100 µM in the assay with SNB-19 CNS; 44.1 µM in the assay with NCI-H460 lung. The GI50 was 37.2 µM in the assay with HOP-92 NSCLC, 61.5 µM in the assay with A498 renal and greater than 100 µM in the assay on SK-OV-3 ovarian. For the same compound, the TGI in the assay on TK-10 renal is greater than 100 µM; with CCRF-CEM leukemia, greater than 100 µM; with COLO 205 colon it was greater than 100 µM; in the assay on HT29 colon, greater than 100 µM; in the assay on SR leukemia it was 0.383 µM; with SNB-19 CNS, greater than 100 µM. The TGI in the assay with NCI-H460 lung, in the assay with HOP-92 NSCLC, in the assay on A498 renal and in the assay on SK-OV-3 ovarian was greater than 100 µM in each case.
